Data set [1] has as its system Rattus norvegicus. As to the kind of experiment: In vivo antagonist activity at histamine H2 receptor in anesthetized rat assessed as inhibition of histamine-stimulated gastric acid secretion up to 256 umol/kg, iv. The class given is functional, organism-based. The following applies: Stomach.
Data set [2] in a line: Retardation factor of the compound using MeOH-NH4OH-H2O at ratio of 6:1:1 as solvent system by thin layer chromatography. Type of data set: physicochemical.
For data set [3], the system named is Rattus norvegicus. Briefly: In vivo agonist activity at histamine H2 receptor in iv dosed anesthetized rat assessed as stimulation of gastric acid secretion relative to histamine. Type of data set: functional, Stomach.
The target of data set [4] is Histamine H1 receptor (Cavia porcellus) (UniProt P31389). As to the kind of experiment: In vitro agonist activity at histamine H1 receptor in guinea pig ileum assessed as contractile response relative to histamine in presence of atropine. The class given is tissue-based.
Data set [5] is described as follows: Retardation factor of the compound using EtOCH2CH2OH-HCl(11N)-H2O at ratio of 8:1:1 as solvent system by thin layer chromatography. Type of data set: physicochemical. The following applies: buffer.
In data set [6] the test system is Rattus norvegicus. As to the kind of experiment: In vivo agonist activity at histamine H2 receptor in anesthetized rat assessed as stimulation of gastric acid secretion at 486 uml/kg, iv. The class given is functional, organism-based. The following applies: Stomach.

SMILES strings stand for the structures. Calls of active or inactive are those of the source. The rule behind the calls is not given here.

Histamine H1 receptor (Cavia porcellus), sequence (P31389 whole entry): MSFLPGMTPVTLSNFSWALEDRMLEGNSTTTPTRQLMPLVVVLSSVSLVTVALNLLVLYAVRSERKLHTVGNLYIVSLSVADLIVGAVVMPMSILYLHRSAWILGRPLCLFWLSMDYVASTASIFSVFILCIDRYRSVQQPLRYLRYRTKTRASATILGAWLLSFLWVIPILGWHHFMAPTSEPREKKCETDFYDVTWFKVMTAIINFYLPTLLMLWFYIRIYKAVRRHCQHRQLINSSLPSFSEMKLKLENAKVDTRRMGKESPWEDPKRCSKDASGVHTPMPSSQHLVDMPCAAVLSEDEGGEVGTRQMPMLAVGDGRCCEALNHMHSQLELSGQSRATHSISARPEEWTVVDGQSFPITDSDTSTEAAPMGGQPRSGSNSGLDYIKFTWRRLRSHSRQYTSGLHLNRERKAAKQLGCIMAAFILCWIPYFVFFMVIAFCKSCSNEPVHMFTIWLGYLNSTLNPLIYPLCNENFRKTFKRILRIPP

Take `Cl.Cn1cncc1CCN`: the result in the data set on Rattus norvegicus [1] was inactive. In addition, the Rf is recorded as 0.63 in data set [2] and 0.56 in data set [5]. Moreover, the Activity in the data set on Rattus norvegicus [3] was less than 0.2%; in data set [4] it was less than 0.01%.
Take `Cl.Cl.Cn1cnc(CCN)c1` [N-METHYLHISTAMINE DIHYDROCHLORIDE]: the outcome in the data set on Rattus norvegicus [1] was inactive. Moreover, the Activity in data set [4] stood at 0.5%.
For the molecule `Cc1nc[nH]c1CCN.Cl`, the results for the Rf in data set [2] and in data set [5] were 0.56 and 0.7, respectively. Further, the Activity is 39% in the data set on Rattus norvegicus [3] and 0.23% in data set [4].
With `CN(C)CCc1cnc[nH]1.Cl`, the figures for the Activity (with Rattus norvegicus [3]; in data set [4]) were 19% and 44%, respectively.
Take `Cc1nc[nH]c1CCN(C)C.Cl`: the Rf is reported as 0.72 in data set [2] and 0.57 in data set [5]. The Activity in the data set with Rattus norvegicus [3] turned out to be 3%; in data set [4], 0.1%.
As to `CC(C)(CN)c1cnc[nH]1`, the result with Rattus norvegicus [1] and with Rattus norvegicus [6] was inactive. Also, in data set [4], the Activity was less than 0.001%.
Regarding `CC(N)Cc1cnc[nH]1.Cl` (stereo not given), the outcome with Rattus norvegicus [1] was inactive. Also, the Activity in the data set on Rattus norvegicus [3] stood at 0.8%; in data set [4], 0.36%.
Turning to `Cc1ncc(CCN(C)C)[nH]1.Cl`, the Activity with Rattus norvegicus [3] was found to be 1.4%; in data set [4], 16.8%.
As for `CC(CN)c1cnc[nH]1.Cl` (stereo not given), the outcome with Rattus norvegicus [1] was inactive. Also, the Activity came out at 0.4% with Rattus norvegicus [3] and 0.83% in data set [4].
On to `Cc1ncc(CCN)[nH]1.Cl`, for which the figures for the Activity (in the data set on Rattus norvegicus [3]; in data set [4]) were 2% and 16.5%, respectively.
As to `CNCCc1[nH]cnc1C.Cl`, the values for the Rf in data set [2] and in data set [5] were 0.51 and 0.7, respectively. In addition, the Activity turned out to be 8.2% with Rattus norvegicus [3] and 0.16% in data set [4].
On to `CNCCc1cnc[nH]1.Cl`, for which the Rf is given as 0.46 in data set [2] and 0.68 in data set [5]. In addition, the Activity in the data set on Rattus norvegicus [3] was determined as 74%; in data set [4], 72%.
With `NCCc1c[nH]cn1` [HISTAMINE], the Rf in data set [2] is recorded as 0.52; in data set [5], 0.7.

For the origin of these results see ChEMBL document CHEMBL3271981, “Potential histamine H2-receptor antagonists. 3. Methylhistamines” (J Med Chem, 1976).
